Legend:
Assay type in all cases: biochemical
CSK(h) = CSK(h) (Homo sapiens, UniProt P41240); assay: CSK(h) kinase assay; conditions: 3 μM; percent of control kinase activity
Experimental: (§1) Six compounds (presumptive single agents) were tested against a panel of 50 kinases. The results are presented in Table 2; numbers for each kinase indicate the percent of control kinase activity in the presence of a 3μM concentration of the indicated agent.
(§2) Agents that target two or more different kinases are useful in the methods of the invention as described elsewhere herein. Such compounds may be identified, and their effect on certain kinases may be identified, using the assays briefly described below in Examples 4-83. Each of these assays was carried out as described in Davies et al., Biochem. J., 351:95-105 (2000). All assays were carried out at 10 μM ATP unless otherwise noted.
In a final reaction volume of 25 μl, CSK (h) (5-10 mU) is incubated with 50 mM Tris pH 7.5, 0.1 mM EGTA, 0.1 mM NaVanadate, 0.1% β-mercaptoethanol, 0.1 mg/ml poly(Glu, Tyr) 4:1, 10 mM MnCl2, 10 mM MgAcetate and [γ-^33P-ATP] (specific activity approx. 500 cpm/pmol, concentration as required). The reaction is initiated by the addition of Mg^2+ [γ-^33P-ATP]. After incubation for 40 minutes at room temperature, the reaction is stopped by the addition of 5 μl of a 3% phosphoric acid solution. 10 μl of the reaction is then spotted onto a Filtermat A and washed three times for 5 minutes in 75 mM phosphoric acid and once in methanol prior to drying and scintillation counting.

PKCμ(h) = target: T1, PKCμ(h) (Homo sapiens, UniProt Q15139); assay: PKCμ(h) kinase assay; conditions: 3 μM; percent of control kinase activity
T1 sequence (Q15139 1-912): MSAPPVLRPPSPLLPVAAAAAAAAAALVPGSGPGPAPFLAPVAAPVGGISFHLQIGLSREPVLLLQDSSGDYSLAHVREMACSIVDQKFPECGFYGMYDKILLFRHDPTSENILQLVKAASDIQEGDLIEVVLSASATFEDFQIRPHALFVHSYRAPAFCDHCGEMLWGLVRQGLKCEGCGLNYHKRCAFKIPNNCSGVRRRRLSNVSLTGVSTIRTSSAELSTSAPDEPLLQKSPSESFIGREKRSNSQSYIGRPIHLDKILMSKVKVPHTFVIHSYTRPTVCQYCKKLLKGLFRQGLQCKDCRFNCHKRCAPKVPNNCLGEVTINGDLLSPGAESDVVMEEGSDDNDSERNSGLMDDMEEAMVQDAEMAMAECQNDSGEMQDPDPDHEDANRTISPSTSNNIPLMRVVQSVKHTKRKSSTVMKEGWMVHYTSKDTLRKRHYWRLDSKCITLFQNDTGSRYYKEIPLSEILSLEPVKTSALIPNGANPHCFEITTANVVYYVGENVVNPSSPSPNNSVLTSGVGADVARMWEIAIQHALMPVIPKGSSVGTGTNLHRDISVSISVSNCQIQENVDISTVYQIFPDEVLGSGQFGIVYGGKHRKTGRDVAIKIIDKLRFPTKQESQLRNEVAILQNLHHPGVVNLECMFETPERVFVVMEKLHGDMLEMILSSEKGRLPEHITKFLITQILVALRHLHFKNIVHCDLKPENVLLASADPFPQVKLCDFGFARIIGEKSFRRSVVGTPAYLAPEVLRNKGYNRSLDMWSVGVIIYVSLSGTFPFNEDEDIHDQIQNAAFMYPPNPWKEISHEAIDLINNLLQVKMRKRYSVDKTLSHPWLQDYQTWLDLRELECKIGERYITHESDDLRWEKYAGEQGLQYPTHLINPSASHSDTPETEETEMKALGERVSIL
Experimental: as §1, §2

PKA(h) = PKA(h) (Homo sapiens, UniProt P17612); assay: PKA(h) kinase assay; conditions: 3 μM; percent of control kinase activity
Experimental: as §1, §2
(§3) In a final reaction volume of 25 μl, PKA(h) (5-10 mU) is incubated with 8 mM MOPS pH 7.0, 0.2 mM EDTA, 30 μM LRRASLG (Kemptide; SEQ ID NO:10), 10 mM MgAcetate and [γ-^33P-ATP] (specific activity approx. 500 cpm/pmol, concentration as required). The reaction is initiated by the addition of Mg^2+ [γ-^33P-ATP]. After incubation for 40 minutes at room temperature, the reaction is stopped by the addition of 5 [Il of a 3% phosphoric acid solution. 10 μl of the reaction is then spotted onto a P30 filtermat and washed three times for 5 minutes in 50 mM phosphoric acid and once in methanol prior to drying and scintillation counting.

Aurora-A(h) = target: T2, Aurora-A(h) (Homo sapiens, UniProt O14965); assay: Aurora-A(h) kinase assay; conditions: 3 μM; percent of control kinase activity
T2 sequence (O14965 1-403): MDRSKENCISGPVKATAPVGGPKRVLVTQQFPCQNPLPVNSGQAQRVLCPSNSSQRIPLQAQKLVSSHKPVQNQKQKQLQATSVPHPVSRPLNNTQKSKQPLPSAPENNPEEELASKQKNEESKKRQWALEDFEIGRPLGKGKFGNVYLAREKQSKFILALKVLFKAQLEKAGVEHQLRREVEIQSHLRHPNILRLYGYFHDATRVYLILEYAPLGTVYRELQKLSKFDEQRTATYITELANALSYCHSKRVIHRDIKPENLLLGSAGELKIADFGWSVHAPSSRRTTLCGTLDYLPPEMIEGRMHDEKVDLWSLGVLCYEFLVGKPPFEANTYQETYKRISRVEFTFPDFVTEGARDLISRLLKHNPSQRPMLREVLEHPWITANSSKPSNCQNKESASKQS
Experimental: as §1, §2

CDK2/cyclinA(h) = CDK2/cyclinA(h) (Homo sapiens, UniProt P24941); assay: CDK2/cyclinA(h) kinase assay; conditions: for Inhibitory activity (% of control), CDK2/cyclinA(h): 3 μM, percent of control kinase activity
Experimental: as §1, §2
as §3, with “μl, CDK2/cyclinA (h)” for “μl, PKA(h)”, “EDTA, 0.1 mg/ml histone H1,” for “EDTA, 30 μM LRRASLG (Kemptide; SEQ ID NO:10),”, “and [γ-^33p-ATP]” for “and [γ-^33P-ATP]”, “5 μl” for “5 [Il”, “in 75” for “in 50”

Inhibitory activity (% of control), CSK(h) (CSK(h))	Inhibitory activity (% of control), PKCμ(h) (PKCμ(h))	Inhibitory activity (% of control), PKA(h) (PKA(h))	Inhibitory activity (% of control), Aurora-A(h) (Aurora-A(h))	Inhibitory activity (% of control), CDK2/cyclinA(h) (CDK2/cyclinA(h))	inhibitory activity against CDK2, in words (CDK2/cyclinA(h); summary of Table 2)	SMILES
88 % of control	2 % of control	50 % of control	0 % of control	2 % of control		CCN1CCC[C@H]1COc1ccc2cc(-c3n[nH]c4ccc(-c5nc(CC(C)(C)C)n[nH]5)cc34)ccc2c1 [CC005, 2-[((2s)-1-ethylpyrrolidin-2-yl)methoxy]-6-{5-[3-(2,2-Dimethylpropyl)(1H-1,2,4,-triazol-5-yl)](1H-indazol-3-yl)}naphthalene]
123 % of control	34 % of control	91 % of control	7 % of control	2 % of control	good inhibitory activity	CC(C)(C)Cc1nc(-c2ccc3[nH]nc(-c4ccc5cc(OCc6ccccn6)ccc5c4)c3c2)n[nH]1 [CC004, 5-[5-(2,2-Dimethyl-propyl)-1H-[1,2,4]triazol-3-yl]-3-[6-(pyridine-2-ylmethoxy)-naphthalen-2-yl]-1H-indazole]

SMILES	Inhibitory activity (% of control), CSK(h) (CSK(h))	Inhibitory activity (% of control), PKCμ(h) (PKCμ(h))	Inhibitory activity (% of control), PKA(h) (PKA(h))	Inhibitory activity (% of control), Aurora-A(h) (Aurora-A(h))	Inhibitory activity (% of control), CDK2/cyclinA(h) (CDK2/cyclinA(h))	inhibitory activity against CDK2, in words (CDK2/cyclinA(h); summary of Table 2)
COc1ccc2cc(-c3n[nH]c4ccc(-c5n[nH]c(CN6CCOCC6)n5)cc34)ccc2c1 [CC001, 3-(6-Methoxynaphthalen-2-yl)-5-(5-Morpholin-4-Ylmethyl-1H-[1,2,4]Triazol-3-yl)-1H-Indazole]	95 % of control	6 % of control	60 % of control	7 % of control	4 % of control	

— US20050107386A1, “Methods of treating diseases and disorders by targeting multiple kinases” (priority 2003, published 2005)
